In the NIST ThermoML archive (doi:10.1021/je049610v):

Assays:
[1] = xn = mol fraction of the nth substance listed; settings: 101 kPa, Liquid
[2] = refractive index (Na D-line) (dimensionless); xn = mol fraction of the nth substance listed; settings: 101 kPa, Liquid
[3] = refractive index (Na D-line) (dimensionless); settings: 101.33 kPa, Liquid
[4] = 101 kPa, Liquid

CCOC(=O)C(=O)OCC [diethyl ethanedioate] + COc1ccccc1
Settings	mass density, 298.15 K [kg/m3]	mass density, 303.15 K [kg/m3]	mass density, 308.15 K [kg/m3]	refractive index, 298.15 K	refractive index, 303.15 K	refractive index, 308.15 K	speed of sound, 298.15 K [m/s]	viscosity, 298.15 K [mPa·s]	viscosity, 303.15 K [mPa·s]	viscosity, 308.15 K [mPa·s]
[1], x2 = 0	1072.3	1066.6	1060.7	–	–	–	1267	1.844	1.659	1.508
[1], x2 = 0.1017	1065.8	1060.1	1054.3	–	–	–	1280	1.732	1.578	1.424
[1], x2 = 0.1976	1059.5	1053.8	1048.1	–	–	–	1293	1.64	1.497	1.354
[1], x2 = 0.2978	1052.6	1047.1	1041.4	–	–	–	1307	1.55	1.416	1.282
[1], x2 = 0.3621	1047.7	1042.3	1036.7	–	–	–	1316	1.495	1.367	1.239
[1], x2 = 0.4971	1037.4	1031.9	1026.5	–	–	–	1334	1.38	1.265	1.149
[1], x2 = 0.5975	1029.1	1023.8	1018.5	–	–	–	1348	1.301	1.195	1.089
[1], x2 = 0.6977	1020.1	1014.9	1009.7	–	–	–	1362	1.223	1.126	1.03
[1], x2 = 0.8016	1010.1	1005.3	1000	–	–	–	1377	1.14	1.054	0.968
[1], x2 = 0.9007	999.9	995.4	990.2	–	–	–	1393	1.061	0.985	0.91
[2], x2 = 0	–	–	–	1.4084	1.4061	1.4039	–	–	–	–
[2], x2 = 0.1017	–	–	–	1.4171	1.4148	1.4124	–	–	–	–
[2], x2 = 0.1976	–	–	–	1.4257	1.4232	1.4207	–	–	–	–
[2], x2 = 0.2978	–	–	–	1.435	1.4325	1.43	–	–	–	–
[2], x2 = 0.3621	–	–	–	1.4412	1.4388	1.4362	–	–	–	–
[2], x2 = 0.4971	–	–	–	1.4551	1.4525	1.4499	–	–	–	–
[2], x2 = 0.5975	–	–	–	1.466	1.4634	1.4607	–	–	–	–
[2], x2 = 0.6977	–	–	–	1.4773	1.4746	1.4718	–	–	–	–
[2], x2 = 0.8016	–	–	–	1.4896	1.4868	1.484	–	–	–	–
[2], x2 = 0.9007	–	–	–	1.5021	1.4991	1.4962	–	–	–	–

C[S+](C)[O-] [dimethyl sulfoxide]
Settings	mass density, 298.15 K [kg/m3]	mass density, 303.15 K [kg/m3]	mass density, 308.15 K [kg/m3]	refractive index, 298.15 K	speed of sound, 298.15 K [m/s]	viscosity, 298.15 K [mPa·s]	viscosity, 303.15 K [mPa·s]	viscosity, 308.15 K [mPa·s]
[3]	–	–	–	1.4768	–	–	–	–
[4]	1095.4	1090.8	1086.2	–	1493	1.984	1.801	1.651

C[S+](C)[O-] [dimethyl sulfoxide] + COc1ccccc1
x2 = 0
Settings	mass density, 298.15 K [kg/m3]	mass density, 303.15 K [kg/m3]	mass density, 308.15 K [kg/m3]	refractive index, 298.15 K	refractive index, 303.15 K	refractive index, 308.15 K	speed of sound, 298.15 K [m/s]	viscosity, 298.15 K [mPa·s]	viscosity, 303.15 K [mPa·s]	viscosity, 308.15 K [mPa·s]
[1]	1095.4	1090.8	1086.2	–	–	–	1493	1.984	1.801	1.651
[2]	–	–	–	1.4768	1.4594	1.4547	–	–	–	–

CN(C)C=O [dimethylformamide]
Settings	mass density, 298.15 K [kg/m3]	mass density, 303.15 K [kg/m3]	mass density, 308.15 K [kg/m3]	refractive index, 298.15 K	refractive index, 303.15 K	refractive index, 308.15 K	speed of sound, 298.15 K [m/s]	viscosity, 298.15 K [mPa·s]	viscosity, 303.15 K [mPa·s]	viscosity, 308.15 K [mPa·s]
[3]	–	–	–	1.4288	1.4264	1.4238	–	–	–	–
[4]	943.9	939.5	935	–	–	–	1462	0.801	0.754	0.711
